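Following 48 hours of exposure in 96-well plates, responses at five concentrations were used to interpolate endpoints linearly. At the TGI there is no net growth.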
How the values were obtained:
Test in all cases: NCI tumour cell line growth inhibition, 48 h
[1] = system: DMS 273 small cell lung
[2] = system: SNB-78 CNS
[3] = system: M19-MEL melanoma
[4] = system: HOP-18 NSCLC
[5] = system: DMS 114 small cell lung
[6] = system: LXFL 529 NSCLC
[7] = system: XF 498 CNS
[8] = system: RXF-631 renal
[9] = system: P388 leukemia
[10] = system: P388/ADR leukemia
[11] = system: SN12K1 renal

| Structure (SMILES) | TGI [1] | TGI [2] | TGI [3] | TGI [4] | TGI [5] | TGI [6] | TGI [7] | TGI [8] | TGI [9] | TGI [10] | TGI [11] |
| --- | --- | --- | --- | --- | --- | --- | --- | --- | --- | --- | --- |
| CS(=O)(=O)CSCSSCS(C)(=O)=O | > 81.3 µM | > 100 µM | > 100 µM | > 100 µM | > 92.1 µM | 42.5 µM | 75.6 µM | > 100 µM |  |  |  |
| Cc1cc(C)nc(NS(=O)(=O)c2ccc(Nc3c4ccccc4nc4c(C(=O)N5CCN(CCOS(C)(=O)=O)CC5)cccc34)cc2)n1 |  | > 100 µM | > 100 µM |  | > 100 µM |  | > 100 µM |  |  |  |  |
| CCOC(=O)C1(C#N)C(c2ccccc2)CC(O)(c2ccc(Cl)cc2)C(C(=O)c2ccc(Cl)cc2)C1c1ccccc1 (stereo unspecified) | > 100 µM | > 100 µM | > 100 µM | > 100 µM | > 100 µM | > 100 µM | > 100 µM |  |  |  |  |
| O=C(N/N=C(/CCN1CCCC1)CC(c1ccccc1)c1c(O)c2ccccc2oc1=O)c1ccncc1 (stereo unspecified) |  | > 100 µM | > 100 µM | > 100 µM |  | > 100 µM |  |  |  |  |  |
| CC(C)N1CC2CC(CN(C(=O)c3ccccc3)C2)C1 | > 100 µM |  | > 100 µM | > 100 µM | > 100 µM | > 100 µM | > 100 µM | > 100 µM |  |  |  |
| COC(=O)C1=C(C(=O)OC)SC(=CC#CC=C2SC(C(=O)OC)=C(C(=O)OC)S2)S1 | 38.4 µM | 48.6 µM | > 100 µM | 45.9 µM | > 60.7 µM | > 57.4 µM | 19.1 µM |  |  |  |  |
| COC(=O)[C@@H]1CCCCC[C@H]2C(CO)=C(C)C(=O)C12 (stereo partly specified) | > 100 µM | > 100 µM | > 100 µM | > 100 µM | > 100 µM | > 100 µM | > 100 µM |  |  |  |  |
| CCCCOc1ccc(OCCCCCCCCCC[N+](C)(C)C)cc1 | 4.25 µM | 9.78 µM |  | 13.7 µM | 6.75 µM |  | 4.57 µM |  | 3.06 µM | 17.8 µM | 8.54 µM |
| NCCCCNCCCNC(=O)c1nc(-c2nc(CCN)sc2Cl)sc1Cl | > 100 µM | > 100 µM | > 100 µM |  | 52.5 µM | 11.1 µM | > 100 µM |  |  |  |  |
| O=C(c1ccncc1)n1nc(-c2ccccc2)c(N=Nc2ccccc2[N+](=O)[O-])c1-c1ccccc1 | > 100 µM | > 100 µM | > 100 µM |  | > 100 µM | > 100 µM | > 100 µM | > 100 µM |  |  |  |
| CCC1=C(C(C)=O)[C@@H]2CCCCC[C@@H](C(=O)OC)C2C1=O (stereo partly specified) | > 100 µM | > 100 µM | > 100 µM | > 100 µM | > 100 µM | > 100 µM | > 100 µM |  |  |  |  |
| CN(C)/N=C(/c1nc2ccc(Cl)cc2[nH]c1=O)C(O)c1ccc(C(O)/C(=N\N(C)C)c2nc3ccc(Cl)cc3[nH]c2=O)cc1 (stereo unspecified) |  |  | > 100 µM |  | > 100 µM |  |  | > 100 µM |  |  |  |
| O=S(=O)(O)c1ccc(N=Nc2ccc(N=Nc3ccc(/C=C/c4ccc(N=[N+]([O-])c5ccc(/C=C/c6ccc(N=Nc7ccc(N=Nc8ccc(S(=O)(=O)O)cc8)cc7)cc6S(=O)(=O)O)c(S(=O)(=O)O)c5)cc4S(=O)(=O)O)c(S(=O)(=O)O)c3)cc2)cc1 | > 100 µM |  | > 100 µM | > 100 µM | > 100 µM |  | > 100 µM |  | > 100 µM | > 100 µM | > 100 µM |
| CCOC(=O)c1s/c(=N\Nc2nc3ccccc3cc2C2OCCO2)n(Cc2ccccc2)c1C | > 100 µM | > 100 µM | > 100 µM | > 100 µM | > 100 µM | > 100 µM | > 100 µM | > 100 µM |  |  |  |

Reference: PubChem BioAssay (NCI)
